The results in this text go back to patent US9328138B2 (priority 2011, dated 2016).

pKi: −log10 of the molar value. Where a name gives a salt, the structure may show the parent alone.

In experiment [1] the target is T1, HCV genotype 1b (BK) NS3 modified enzyme with a R155K mutation (Hepatitis C virus genotype 1b, UniProt P26663, R1181K).
T1 construct: HCV genotype 1b (BK) NS3 modified enzyme
Put plainly: HCV NS3 protease time-resolved fluorescence (TRF) assay, genotype 1b R155K. Format: biochemical. Particulars: Ki 1b R155K. The procedure, abridged:
(§1)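 Time-resolved fluorescence, ex 340/em 615 nm, 400 μs delay; IC50 by four-parameter fit. Enzyme preincubated with compound 10 min, then TRF substrate 25 nM final added and reaction run 6 h at RT. Buffer HEPES pH 7.5 with NaCl, glycerol, Triton X-100, DTT, PEG 8000.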

Experiment [2] concerns the target HCV NS3 protease genotype 3a (3A-1) (Hepatitis C virus genotype 3a, UniProt Q81258). Put plainly: HCV NS3 protease time-resolved fluorescence (TRF) assay, genotype 3a. Format: biochemical. To be noted: Ki 3a. Summed up:
as §1

Setting [3] is: genotype 1b (BK) NS3 R155K, single value.
The mark [4] stands for this setting: first of two values printed in the cell (not explained).
Setting [5] is: second of two values printed in the cell (not explained).

Consider `C=C[C@@H]1C[C@]1(NC(=O)[C@@H]1C[C@@H]2CN1C(=O)[C@H](C(C)(C)C)NC(=O)O[C@@H]1C[C@H]1CCCCCc1c(nc3ccccc3c1OC[C@H]1CCN(C(=O)OC(C)(C)C)C1)O2)C(=O)NS(=O)(=O)C1(C)CC1` [Example 137, tert-butyl (3S)-3-({[(1aR,5S,8S,10R,22aR)-5-tert-butyl-8-{[(1R,2S)-2-ethenyl-1-{[(1-methylcyclopropyl)sulfonyl]carbamoyl}cyclopropyl]carbamoyl}-3,6-dioxo-1,1a,3,4,5,6,9,10,18,19,20,21,22,22a-tetradecahydro-8H-7,10-methanocyclopropa[18,19][1,10,3,6]dioxadiazacyclononadecino[11,12-b]quinolin-17-yl]oxy}methyl)pyrrolidine-1-carboxylate], for which the pKi in experiment [1] (setting [3]) was 9.85; in experiment [2] it was 8.92.
Turning to `C=C[C@@H]1CC1(NC(=O)[C@@H]1C[C@@H]2CN1C(=O)[C@H](C(C)(C)C)NC(=O)O[C@@H]1C[C@H]1CCCCCc1c(nc3ccccc3c1OC1C3COCC1CN(CCOC)C3)O2)C(=O)NS(=O)(=O)C1(C)CC1` (stereo partly drawn) [Example 257, 9-{[(1aR,5S,8S,10R,22aR)-5-tert-butyl-8-{[(1R,2S)-2-ethenyl-1-{[1-methylcyclopropyl)sulfonyl]carbamoyl}cyclopropyl]carbamoyl}-3,6-dioxo-1,1a,3,4,5,6,9,10,18,19,20,21,22,22a-tetradecahydro-8H-7,10-methanocyclopropa[18,19][1,10,3,6]dioxadiazacyclononadecino[11,12-b]quinolin-17-yl]oxy}-7-(2-methoxyethyl)-3-oxa-7-azoniabicyclo[3.3.1]nonane formate], the pKi in experiment [1] (setting [4]) was 10.49; in experiment [1] (setting [5]) it was 9.64; in experiment [2], 8.41.
For the molecule `C=C[C@@H]1C[C@]1(NC(=O)[C@@H]1C[C@@H]2CN1C(=O)[C@H](C1CCCCC1)NC(=O)O[C@@H]1C[C@H]1CCCCCc1c(nc3ccccc3c1OCCCSc1nccs1)O2)C(=O)NS(=O)(=O)C1(C)CC1` [Example 172], the pKi is 8.96 in experiment [1] (setting [3]) and 7.85 in experiment [2].
Turning to `C=C[C@@H]1C[C@]1(NC(=O)[C@@H]1C[C@@H]2CN1C(=O)[C@H](C(C)(C)C)NC(=O)O[C@@H]1C[C@H]1CCCCCc1c(nc3ccccc3c1OC1CC3CCC(C1)N3C(=O)OC(C)(C)C)O2)C(=O)NS(=O)(=O)C1(C)CC1` (single isomer, unassigned) [Example 278], the pKi is 9.07 in experiment [1] (setting [4]), 7.70 in experiment [1] (setting [5]) and 6.13 in experiment [2].
On to `C=C[C@@H]1C[C@]1(NC(=O)[C@@H]1C[C@@H]2CN1C(=O)[C@H](C(C)(C)C)NC(=O)O[C@@H]1C[C@H]1CCCCCc1c(nc3ccccc3c1OC1CCN(CC3CC3)CC1)O2)C(=O)NS(=O)(=O)C1(C)CC1` [Example 230, (1aR,5S,8S,10R,22aR)-5-tent-butyl-17-{[1-(cyclopropylmethyl)piperidin-4-yl]oxy}-N-[(1R,2S)-2-ethenyl-1-{[(1-methylcyclopropyl)sulfonyl]carbamoyl}cyclopropyl]-3,6-dioxo-1,1a,3,4,5,6,9,10,18,19,20,21,22,22a-tetradecahydro-8H-7,10-methanocyclopropa[18,19][1,10,3,6] dioxadiazacyclononadecino[11,12-b]quinoline-8-carboxamide], for which the pKi was 10.19 in experiment [1] (setting [3]) and 9.42 in experiment [2].
For the molecule `CC1(S(=O)(=O)NC(=O)[C@@]23C[C@H]2/C=C\CCCCC[C@@H]2NC(=O)O[C@@H]4C[C@H]4CCC/C=C/c4c(nc5ccccc5c4OCCCN4CCCCC4)O[C@@H]4C[C@@H](C(=O)N3)N(C4)C2=O)CC1` [Example 302, (1aR,5S,11Z,12aS,13aR,16S,19R,27E,31aR)—N-[(1-methylcyclopropyl)sulfonyl]-3,15,33-trioxo-26-[3-(piperidin-1-yl)propoxy]-1,1a,3,4,5,6,7,8,9,10,12a,13,15,16,18,19,29,30,31,31a-icosahydro-5,17:16,19-dimethanodicyclopropa[12,13:28,29][1,20,3,14,17]dioxatriazacyclononacosino[21,22-b]quinoline-13a(14H)-carboxamide], the negative-log Ki (pKi) in experiment [1] (setting [3]) is 9.80; in experiment [2], 8.70.
With `C=C[C@@H]1C[C@]1(NC(=O)[C@@H]1C[C@@H]2CN1C(=O)[C@H](C1CCCCC1)NC(=O)O[C@@H]1C[C@H]1CCCCCc1c(nc3ccccc3c1OCCCNC1CC1)O2)C(=O)NS(=O)(=O)C1(C)CC1` [Example 241, N-(3-{[(1aR,5S,8S,10R,22aR)-5-cyclohexyl-8-{[(1R,2S)-2-ethenyl-1-{[(1-methylcyclopropyl)sulfonyl]carbamoyl}cyclopropyl]carbamoyl}-3,6-dioxo-1,1a,3,4,5,6,9,10,18,19,20,21,22,22a-tetradecahydro-8H-7,10-methanocyclopropa[18,19][1,10,3,6]dioxadiazacyclononadecino[11,12-b]quinolin-17-yl]oxy}propyl)cyclopropanaminium formate], the pKi in experiment [1] (setting [4]) is 10.68; in experiment [1] (setting [5]) it was 9.79; in experiment [2] it was 8.55.
As for `C=C[C@@H]1C[C@]1(NC(=O)[C@@H]1C[C@@H]2CN1C(=O)[C@H](C(C)(C)C)NC(=O)O[C@@H]1C[C@H]1CCCCCc1c(nc3ccccc3c1OCCN1CCCC1)O2)C(=O)NS(=O)(=O)C1(C)CC1` [Example 135], the negative logarithm of the Ki (pKi) is 9.70 in experiment [1] (setting [3]) and 8.74 in experiment [2].
On the same counts, the results for `CCOc1c2c(nc3ccccc13)O[C@@H]1C[C@@H](C(=O)N[C@]3(C(=O)NS(=O)(=O)C4CC4)C[C@H]3CC)N(C1)C(=O)[C@H](C1CCCC1)NC(=O)O[C@@H]1CCC[C@H]1CC/C=C/C2` [Example 2, (3aR,7S,10S,12R,21E,24aS)-7-cyclopentyl-N-{(1R,2R)-1-[(cyclopropylsulfonyl)carbamoyl]-2-ethylcyclopropyl}-19-ethoxy-5,8-dioxo-1,2,3,3a,5,6,7,8,11,12,20,23,24,24a-tetradecahydro-10H-9,12-methanocyclopenta[18,19][1,10,3,6] dioxadiazacyclononadecino[11,12-b] quinoline-10-carboxamide] are 8.57 and 7.51.
The matching figures for `C=C[C@@H]1C[C@]1(NC(=O)[C@@H]1C[C@@H]2CN1C(=O)[C@H](C(C)(C)C)NC(=O)O[C@@H]1C[C@H]1CCCCCc1c(nc3ccccc3c1OCCCN(C)Cc1ncc(C)[nH]1)O2)C(=O)NS(=O)(=O)C1(C)CC1` [Example 201, (1aR,5S,8S,10R,22aR)-5-tert-butyl-N-[(1R,2S)-2-ethenyl-1-{[(1-methylcyclopropyl)sulfonyl]carbamoyl}cyclopropyl]-17-(3-{methyl[(5-methyl1H-imidazol-2-yl)methyl]amino}proopoxy)-3,6-dioxo-1,1a,3,4,5,6,9,10,18,19,20,21,22,22a-tetradecahydro-8H-7,10-methanocyclopropa[18,19][1,10,3,6] dioxadiazacyclononadecino[11,12-b] quinoline-8-carboxamide]: 10.10 and 8.89.

For orientation: pKi means −log10 of the Ki, conventionally taken in molar units. Low readings indicate a large Ki, high ones a small Ki.
